# Experimental data as given in article PMC11769294, “(E)-1-(3-(3-Hydroxy-4-Methoxyphenyl)-1-(3,4,5-Trimethoxyphenyl)allyl)-1H-1,2,4-Triazole and Related Compounds: Their Synthesis and Biological Evaluation as Novel Antimitotic Agents Targeting Breast Cancer” (Pharmaceuticals, 2025).
# pIC50: −log10 of the molar value. Where “and” joins values, the source holds several entries; their conditions need not be identical. Equal values may be shown once.
# Tests used:
# Type in all cases: cell-based, human
# RPMI-8226 (Leukemia) = test: NCI60 screen (SRB); settings: 48 h; for growth percent: one dose 10 µM
# RXF 393 (Renal Cancer) = test: NCI60 screen (SRB); settings: 48 h; for growth percent: one dose 10 µM
# [1] = system: A549/ATCC (Non-Small Cell Lung Cancer); test: NCI60 screen (SRB); settings: 48 h; for growth percent: one dose 10 µM
# [2] = system: NCI-H23 (Non-Small Cell Lung Cancer); test: NCI60 screen (SRB); settings: 48 h; for growth percent: one dose 10 µM
# OVCAR-5 (Ovarian Cancer) = test: NCI60 screen (SRB); settings: 48 h; for growth percent: one dose 10 µM
# OVCAR-3 (Ovarian Cancer) = test: NCI60 screen (SRB); settings: 48 h; for growth percent: one dose 10 µM
# SK-MEL-5 (Melanoma) = test: NCI60 screen (SRB); settings: 48 h; for growth percent: one dose 10 µM
# HCC-2998 (Colon Cancer) = test: NCI60 screen (SRB); settings: 48 h; for growth percent: one dose 10 µM
# UACC-62 (Melanoma) = test: NCI60 screen (SRB); settings: 48 h; for growth percent: one dose 10 µM
# HCT-116 (Colon Cancer) = test: NCI60 screen (SRB); settings: 48 h; for growth percent: one dose 10 µM
# [3] = system: NCI-H226 (Non-Small Cell Lung Cancer); test: NCI60 screen (SRB); settings: 48 h; for growth percent: one dose 10 µM
# SF-539 (CNS Cancer) = test: NCI60 screen (SRB); settings: 48 h; for growth percent: one dose 10 µM
# SNB-75 (CNS Cancer) = test: NCI60 screen (SRB); settings: 48 h; for growth percent: one dose 10 µM
# SK-MEL-28 (Melanoma) = test: NCI60 screen (SRB); settings: 48 h; for growth percent: one dose 10 µM
# OVCAR-8 (Ovarian Cancer) = test: NCI60 screen (SRB); settings: 48 h; for growth percent: one dose 10 µM
# TK-10 (Renal Cancer) = test: NCI60 screen (SRB); settings: 48 h; for growth percent: one dose 10 µM
# HS 578T (Breast Cancer) = test: NCI60 screen (SRB); settings: 48 h; for growth percent: HS 578T, one dose 10 µM
# LOX IMVI (Melanoma) = test: NCI60 screen (SRB); settings: 48 h; for growth percent: one dose 10 µM
# KM12 (Colon Cancer) = test: NCI60 screen (SRB); settings: 48 h; for growth percent: one dose 10 µM
# K-562 (Leukemia) = test: NCI60 screen (SRB); settings: 48 h; for growth percent: one dose 10 µM
# M14 (Melanoma) = test: NCI60 screen (SRB); settings: 48 h; for growth percent: one dose 10 µM
# [4] = system: HOP-92 (Non-Small Cell Lung Cancer); test: NCI60 screen (SRB); settings: 48 h; for growth percent: one dose 10 µM
# [5] = system: NCI/ADR-RES (Ovarian Cancer); test: NCI60 screen (SRB); settings: 48 h; for growth percent: one dose 10 µM
# [6] = system: MDA-MB-468 (Breast Cancer); test: NCI60 screen (SRB); settings: 48 h; for growth percent: one dose 10 µM
# [7] = system: EKVX (Non-Small Cell Lung Cancer); test: NCI60 screen (SRB); settings: 48 h; for growth percent: one dose 10 µM
# A498 (Renal Cancer) = test: NCI60 screen (SRB); settings: 48 h; for growth percent: one dose 10 µM
# SW-620 (Colon Cancer) = test: NCI60 screen (SRB); settings: for GI50: five-dose; for growth percent: one dose 10 µM
# HT29 (Colon Cancer) = test: NCI60 screen (SRB); settings: 48 h; for growth percent: one dose 10 µM
# ACHN (Renal Cancer) = test: NCI60 screen (SRB); settings: 48 h; for growth percent: one dose 10 µM
# SK-MEL-2 (Melanoma) = test: NCI60 screen (SRB); settings: 48 h; for growth percent: one dose 10 µM
# 786-0 (Renal Cancer) = test: NCI60 screen (SRB); settings: 48 h; for growth percent: one dose 10 µM
# SF-268 (CNS Cancer) = test: NCI60 screen (SRB); settings: 48 h; for growth percent: one dose 10 µM
# PC-3 (Prostate Cancer) = test: NCI60 screen (SRB); settings: 48 h; for growth percent: one dose 10 µM
# leukemia panel = test: NCI60 screen (SRB), panel mean; settings: one dose 10 µM, 48 h
# SF-295 (CNS Cancer) = test: NCI60 screen (SRB); settings: 48 h; for growth percent: one dose 10 µM
# CAKI-1 (Renal Cancer) = test: NCI60 screen (SRB); settings: 48 h
# T-47D (Breast Cancer) = test: NCI60 screen (SRB); settings: 48 h; for growth percent: one dose 10 µM
# MCF7 (Breast Cancer) = test: NCI60 screen (SRB); settings: 48 h; for growth percent: one dose 10 µM
# BT-549 (Breast Cancer) = test: NCI60 screen (SRB); settings: for GI50: five-dose; for growth percent: one dose 10 µM
# SN12C (Renal Cancer) = test: NCI60 screen (SRB); settings: 48 h; for growth percent: one dose 10 µM
# MALME-3M (Melanoma) = test: NCI60 screen (SRB); settings: 48 h; for growth percent: one dose 10 µM
# HL-60 (TB) (Leukemia) = test: NCI60 screen (SRB); settings: for GI50: HL-60(TB), five-dose; for growth percent: HL-60 (TB), one dose 10 µM
# [8] = Homo sapiens, five-dose, read-out: IC50 (cell marked * in GI50 column)
# [9] = Homo sapiens, five-dose, read-out: IC50 (cell marked * in GI50 column) (converted)
smiles,measurement,setting,value
"COc1ccc(/C=C/C(c2cc(OC)c(OC)c(OC)c2)n2cncn2)cc1O (stereo not shown) [Compound 22b, (E)-5-(3-(1H-1,2,4-Triazol-1-yl)-3-(3,4,5-trimethoxyphenyl)prop-1-en-1-yl)-2-methoxyphenol]",GI50,"RPMI-8226 (Leukemia); Homo sapiens, five-dose",37 nM
same,growth percent,RPMI-8226 (Leukemia),19.89%
same,pIC50,RXF 393 (Renal Cancer); [8],< 4.00
same,growth percent,RXF 393 (Renal Cancer),−16.94%
same,GI50,"[1]; Homo sapiens, five-dose",4560 nM
same,growth percent,[1],40.13%
same,GI50,"[2]; Homo sapiens, five-dose",3470 nM
same,growth percent,[2],41.50%
same,GI50,"OVCAR-5 (Ovarian Cancer); Homo sapiens, five-dose",4480 nM
same,growth percent,OVCAR-5 (Ovarian Cancer),86.55%
same,GI50,"OVCAR-3 (Ovarian Cancer); Homo sapiens, five-dose",26 nM
same,growth percent,OVCAR-3 (Ovarian Cancer),15.65%
same,GI50,"SK-MEL-5 (Melanoma); Homo sapiens, five-dose",45.8 nM
same,growth percent,SK-MEL-5 (Melanoma),23.87%
same,GI50,"HCC-2998 (Colon Cancer); Homo sapiens, five-dose",3000 nM
same,growth percent,HCC-2998 (Colon Cancer),67.70%
same,GI50,"UACC-62 (Melanoma); Homo sapiens, five-dose",47.6 nM
same,growth percent,UACC-62 (Melanoma),37.50%
same,GI50,"HCT-116 (Colon Cancer); Homo sapiens, five-dose",41 nM
same,growth percent,HCT-116 (Colon Cancer),10.52%
same,GI50,"[3]; Homo sapiens, five-dose",5930 nM
same,growth percent,[3],62.21%
same,GI50,"SF-539 (CNS Cancer); Homo sapiens, five-dose",26.7 nM
same,growth percent,SF-539 (CNS Cancer),−4.58%
same,pIC50,SNB-75 (CNS Cancer); [8],< 4.00
same,growth percent,SNB-75 (CNS Cancer),40.99%
same,GI50,"SK-MEL-28 (Melanoma); Homo sapiens, five-dose",3620 nM
same,growth percent,SK-MEL-28 (Melanoma),59.08%
same,IC50,OVCAR-8 (Ovarian Cancer); [9],3630 nM
same,growth percent,OVCAR-8 (Ovarian Cancer),15.99%
same,GI50,"TK-10 (Renal Cancer); Homo sapiens, five-dose",21200 nM
same,growth percent,TK-10 (Renal Cancer),41.24%
same,growth percent,HS 578T (Breast Cancer),28.47%
same,pIC50,"HS 578T (Breast Cancer); Homo sapiens, Hs-578T, read-out: IC50 (cell marked * in GI50 column)",< 4.00
same,GI50,"LOX IMVI (Melanoma); Homo sapiens, five-dose",51.1 nM
same,growth percent,LOX IMVI (Melanoma),50.87%
same,GI50,"KM12 (Colon Cancer); Homo sapiens, five-dose",40.5 nM
same,growth percent,KM12 (Colon Cancer),26.67%
same,GI50,"K-562 (Leukemia); Homo sapiens, K562, five-dose",32 nM
same,growth percent,K-562 (Leukemia),8.05%
same,GI50,"M14 (Melanoma); Homo sapiens, five-dose",28.7 nM
same,growth percent,M14 (Melanoma),−12.29%
same,GI50,"[4]; Homo sapiens, five-dose",67000 nM
same,growth percent,[4],47.98%
same,pIC50,[5]; [8],5.28
same,growth percent,[5],10.82%
same,pIC50,[6]; [8],< 4.00
same,growth percent,[6],8.27%
same,GI50,"[7]; Homo sapiens, five-dose",6070 nM
same,growth percent,[7],59.45%
same,GI50,"A498 (Renal Cancer); Homo sapiens, five-dose",3130 nM
same,growth percent,A498 (Renal Cancer),19.81%
same,GI50,"SW-620 (Colon Cancer); Homo sapiens, SW-620, 48 h",39 nM
same,GI50,SW-620 (Colon Cancer); 48 h,39.4 nM
same,growth percent,SW-620 (Colon Cancer); 48 h,27.62%
same,GI50,"HT29 (Colon Cancer); Homo sapiens, HT-29, five-dose",3680 nM
same,growth percent,HT29 (Colon Cancer),41.01%
same,GI50,"ACHN (Renal Cancer); Homo sapiens, five-dose",57.9 nM
same,growth percent,ACHN (Renal Cancer),63.11%
same,GI50,"SK-MEL-2 (Melanoma); Homo sapiens, five-dose",43.8 nM
same,growth percent,SK-MEL-2 (Melanoma),18.23%
same,IC50,786-0 (Renal Cancer); [9],8910 nM
same,growth percent,786-0 (Renal Cancer),23.33%
same,GI50,"SF-268 (CNS Cancer); Homo sapiens, five-dose",58.9 nM
same,growth percent,SF-268 (CNS Cancer),54.09%
same,GI50,"PC-3 (Prostate Cancer); Homo sapiens, five-dose",36 nM
same,growth percent,PC-3 (Prostate Cancer),23.47%
same,mean growth percentage,leukemia panel,4.2%
same,IC50,SF-295 (CNS Cancer); [9],3720 nM
same,growth percent,SF-295 (CNS Cancer),1.43%
same,GI50,"CAKI-1 (Renal Cancer); Homo sapiens, five-dose",2830 nM
same,growth percent,CAKI-1 (Renal Cancer); one dose 10 µM,34.50%
same,GI50,"T-47D (Breast Cancer); Homo sapiens, T47D, five-dose",> 100000 nM
same,growth percent,T-47D (Breast Cancer),34.38%
same,GI50,"MCF7 (Breast Cancer); Homo sapiens, five-dose",33 nM
same,growth percent,MCF7 (Breast Cancer),21.2% and 21.22%
same,GI50,"BT-549 (Breast Cancer); Homo sapiens, BT-549, 48 h",71 nM
same,GI50,BT-549 (Breast Cancer); 48 h,71.2 nM
same,growth percent,BT-549 (Breast Cancer); 48 h,36.59%
same,GI50,"SN12C (Renal Cancer); Homo sapiens, five-dose",7190 nM
same,growth percent,SN12C (Renal Cancer),49.61%
same,pIC50,MALME-3M (Melanoma); [8],< 4.00
same,growth percent,MALME-3M (Melanoma),54.35%
same,GI50,HL-60 (TB) (Leukemia); 48 h,24.5 nM
same,growth percent,HL-60 (TB) (Leukemia); 48 h,−36.28%
same,GI50,"HL-60 (TB) (Leukemia); Homo sapiens, HL-60, 48 h",24 nM
"COc1cc(/C=C/C(/C=C/c2cc(OC)c(OC)c(OC)c2)n2ccnc2)cc(OC)c1OC [Compound 30, 1-((1E,4E)-1,5-bis(3,4,5-trimethoxyphenyl)penta-1,4-dien-3-yl)-1H-imidazole]",growth percent,RPMI-8226 (Leukemia),60.48%
same,growth percent,RXF 393 (Renal Cancer),88.15%
same,growth percent,[1],78.93%
same,growth percent,[2],81.16%
same,growth percent,OVCAR-5 (Ovarian Cancer),129.83%
same,growth percent,OVCAR-3 (Ovarian Cancer),83.41%
same,growth percent,SK-MEL-5 (Melanoma),62.09%
same,growth percent,HCC-2998 (Colon Cancer),99.87%
same,growth percent,UACC-62 (Melanoma),68.23%
same,growth percent,HCT-116 (Colon Cancer),78.18%
same,growth percent,[3],84.81%
same,growth percent,SF-539 (CNS Cancer),93.55%
same,growth percent,SNB-75 (CNS Cancer),54.99%
same,growth percent,SK-MEL-28 (Melanoma),100.52%
same,growth percent,OVCAR-8 (Ovarian Cancer),83.74%
same,growth percent,TK-10 (Renal Cancer),115.50%
same,growth percent,HS 578T (Breast Cancer),77.21%
same,growth percent,LOX IMVI (Melanoma),85.14%
same,growth percent,KM12 (Colon Cancer),82.35%
same,growth percent,K-562 (Leukemia),61.41%
same,growth percent,M14 (Melanoma),82.03%
same,growth percent,[4],56.24%
same,growth percent,[5],89.35%
same,growth percent,[6],57.22%
same,growth percent,[7],94.43%
same,growth percent,A498 (Renal Cancer),104.55%
same,growth percent,SW-620 (Colon Cancer); 48 h,88.00%
same,growth percent,HT29 (Colon Cancer),80.30%
same,growth percent,ACHN (Renal Cancer),99.92%
same,growth percent,SK-MEL-2 (Melanoma),81.02%
same,growth percent,786-0 (Renal Cancer),95.20%
same,growth percent,SF-268 (CNS Cancer),91.93%
same,growth percent,PC-3 (Prostate Cancer),58.09%
same,mean growth percentage,leukemia panel,60.5%
same,growth percent,SF-295 (CNS Cancer),95.73%
same,growth percent,T-47D (Breast Cancer),77.54%
same,growth percent,MCF7 (Breast Cancer),57.42%
same,growth percent,BT-549 (Breast Cancer); 48 h,83.42%
same,growth percent,SN12C (Renal Cancer),84.52%
same,growth percent,MALME-3M (Melanoma),93.80%
same,growth percent,HL-60 (TB) (Leukemia); 48 h,70.60%
